Test results: PubChem BioAssay (NCI)
Several values for one entry are separate records, joined by “and”; a condition that tells them apart may be missing. Equal values may be shown once.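 Results reflect a 48-hour exposure of cells in 96-well plates to compound at five concentrations. GI50: concentration for 50% inhibition of growth. The concentration for full growth arrest is given as TGI.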

System: MDA-MB-468 breast
Assay: NCI-60 cell line screen, 48 h

With `COC(=O)C(=O)CC(=O)CCn1ncc(Cl)c(Cl)c1=O` the GI50 was 7.01 µM and the TGI was 22.5 µM.

Work on `CCn1c(SCC(=O)Nc2cccc(C(=O)/C=C/c3cc(OC)c(OC)c(OC)c3)c2)nc2ccccc2c1=O` yielded a GI50 of 4.22 µM and a TGI of 40.2 µM.

`CCCCCCCCCCCCCC(=S)NCCCC[C@H](NC(=O)OCc1ccccc1)C(=O)Nc1ccccc1` was tested, and the GI50 was 2.69 µM and the TGI was > 100 µM.

Work on `CC(C)(C)c1cc(O)c(O)c(C(C)(C)C)c1` yielded a GI50 of 2.14 µM and a TGI of 4.77 µM.

`COc1ccc(-c2nn(-c3cccc(Cl)c3)cc2C2CC(c3ccccc3)=NN2C(C)=O)cc1` (centres undefined) was tested, and the GI50 was 16.3 µM and the TGI was > 100 µM.

For `O=C(Nc1nc2ccccc2s1)OCC(F)(F)F`, the GI50 was > 100 µM and the TGI was > 100 µM.

With `Oc1ccccc1/C=N/Nc1ccc2ccccc2n1` the GI50 was 2.6 µM and the TGI was 14.8 µM.

With `CN=C(N)N/N=C(\c1ccccc1)c1ccc(Br)cc1` the GI50 was 0.275 µM and the TGI was 1.08 µM.

`O=C(Nc1cccc(-n2ccc3c(NC(=O)c4ccccc4)nccc32)c1)c1cccc(C(F)(F)F)c1` gave a GI50 of 0.0295 µM and a TGI of 1.54 µM.

`C=CC(=O)N[C@H]1C=C(C)c2c(-c3cnc4ccccc4c3)c3c(N)ncnc3n2C1` showed a GI50 of 0.0265 µM and a TGI of 0.485 µM.

With `C[C@@H]1CC[C@@H]2[C@@H]1[C@H](OC(=O)/C=C/c1ccccc1)[C@]1(c3ccccc3)C[C@@H](OC(=O)CO)[C@@]2(C)O1` the GI50 was 13.6 µM and the TGI was 29 µM.

`Cc1ccc2c(C(C[N+](=O)[O-])c3cccs3)c(-c3ccccc3)[nH]c2c1` (centres undefined) was tested, and the GI50 was 0.82 µM and the TGI was 3.02 µM.

`COc1ccccc1NC1=C(Cl)C(=O)c2nc(C)ccc2C1=O` gave a GI50 of 1.52 µM and a TGI of 3.06 µM.

In the case of `CN(C)CC(=O)N1CCC(c2ccc(NC(=O)c3ncc(C#N)[nH]3)c(C3=CCCCC3)c2)CC1`, the GI50 is reported as 4.86 µM and the TGI is reported as 18.5 µM.

`Nc1n[nH]c2ccc([C@@H]3Nc4ccc5[nH]ncc5c4[C@H]4[C@H]5CCC(C5)[C@H]43)cc12` gave a GI50 of 0.249 µM and a TGI of 1.42 µM.

`CNC(=O)c1ccccc1CC1(O)c2ccccc2Oc2ccccc21` gave a GI50 of 3.55 µM and a TGI of 20.5 µM.

In the case of `CC1(C)N=C(N)N=C(N)N1c1ccc(CCCCc2ccc(S(=O)(=O)F)cc2)cc1`, the GI50 is reported as 0.539 µM and the TGI is reported as 9.33 µM.

`COc1ccc(C(=O)Nc2ncc(Cc3ccc(Cl)cc3)s2)cc1` was tested, and the GI50 was 0.0378 µM and the TGI was 17.5 µM.

Work on `CCN1CCN(c2nc(NCCCNc3ccnc4cc(Cl)ccc34)c3ccccc3n2)CC1` yielded a GI50 of 1.62 µM and a TGI of 3.61 µM.

In the case of `Cc1ccn2c3c(c(C(=O)O)c2c1)C(=O)c1ccccc1C3=O`, the GI50 is reported as 17.3 µM and the TGI is reported as > 100 µM.

`C#Cc1nc(C(=O)NCCC(=O)Nc2ccc(NC(=O)c3ccc(/C=C/C(=O)c4nccn4C)cc3)cc2)cs1` gave a GI50 of 0.891 µM and a TGI of 2.17 µM.

In the case of `COc1cc2ncn(-c3cc(OCc4ccccc4Cl)c(C(N)=O)s3)c2cc1OC`, the GI50 is reported as 0.0499 µM and the TGI is reported as 0.429 µM.

With `CN1CCN(CC#Cc2cccc(C(=O)c3cnn(-c4ccc(F)cc4)c3N)c2)CC1` the GI50 was > 25 µM and the TGI was > 25 µM.

Work on `COc1cccc(/C=C/C(=O)c2cc3c(N)c(C(=O)Nc4ccccc4C)sc3nc2C)c1` yielded a GI50 of 0.887 µM and a TGI of 2.04 µM.

In the case of `COc1ccc(C(=S)N2CCN(c3cccc(Cl)c3)CC2)cc1`, the GI50 is reported as 32.3 µM and the TGI is reported as > 100 µM.

`O=C(CSc1nc2ccc([N+](=O)[O-])cc2[nH]1)Nc1ccc(F)c(Cl)c1` showed a GI50 of 1.17 µM and a TGI of 5.07 µM.

Work on `C=C1C(=O)O[C@H]2[C@H]1CC/C(CNC(=O)c1c[nH]c3ccc(F)cc13)=C\CC[C@@]1(C)O[C@@H]21` yielded a GI50 of 0.658 µM and a TGI of 2.06 µM.

With `COc1cc(/C=C\[N+](=O)[O-])ccc1O` the GI50 was 1.69 µM and the TGI was 3.5 µM.

With `Brc1cccc(-c2cc(-c3ccc4c(c3)OCCO4)[nH]n2)c1` the GI50 was 5.6 µM and the TGI was 33.5 µM.

`O=C(NNc1nc2c(F)cccc2n2cccc12)c1cnccn1` gave a GI50 of 0.535 µM and a TGI of 2.17 µM.

For `CC(=O)Nc1cccc(-n2c(=O)n(C3CC3)c(=O)c3c(Nc4ccc(I)cc4F)n(C)c(=O)c(C)c32)c1`, the GI50 was 2.82 µM and > 10 µM and the TGI was 23.6 µM and > 10 µM.

In the case of `COc1c(C2CC(=O)Nc3c2cnn3Cc2ccco2)cc2c(c1OC)OCO2` (centres undefined), the GI50 is reported as 0.318 µM and the TGI is reported as > 100 µM.
